Values joined by “and” are separate entries in the source; they are usually repeats but may differ in a detail not shown here. Identical values can stand only once.
System: Cx43 at RFPEC borders
Experiment: Cx43 expression at EC borders, immunostaining and confocal microscopy
Assay type: cell-based, rat
Description: Cell Culture. Rat fat pad ECs (RFPEC) at passages 20 to 39 were offspring of cells isolated from rat epididymal fat pad and provided by Dr. Mia Thi of Albert Einstein College of Medicine (Bronx, N.Y.). […] The RFPECs are immortalized, making it possible to use late passages. RFPEC were seeded on 12-14-mm diameter and 0.13-0.17-mm thick glass coverslips at a seeding density of 15,000-20,000 cells/cm^2. Cells were cultured in Dulbecco's Modified Eagle Medium (DMEM, Invitrogen, USA) with 1% penicillin-streptomycin (PS) and 10% fetal bovine serum (FBS, Gibco Life Technologies). Cells were maintained in humidity at 37° C. and 5% CO2. RFPECs reached full confluence in 3 days.
Cultured RFPECs produce thick and robust GCX in this time period. At 3 days post-seeding the RFPECs' culture medium was supplemented with 1% BSA in place of FBS to stabilize the GCX during preservation and immunolabeling (described below). For enzyme treatment experiments, 25 micro-international units per milliliter (μIU/ml) of heparinase III (Hep III; IBEX, Canada) were added to BSA-containing culture media for 2 hours to degrade HS from the GCX [46]. HepIII was washed out, and the wash-out was followed by a 16-hour incubation of RFPECs in regular BSA-containing media. In self-recovery experiments, RFPEC GCX was left to recover for 24 hours after enzyme degradation. The time frame was chosen in accordance with the 20-hour time period that is required for HS restoration to occur on the surface of ECs. For HS recovery experiments, exogenous HS and/or S1P were applied for 16 hours to accommodate the communication test as an assessment of functional glycocalyx recovery. […] After HS was degraded with HepIII, it was replaced by a 16-hour feeding of RFPECs with 59 μg/ml exogenous porcine mucosal HS (Celsus, Cincinnati, Ohio), based on published serum concentration of HS [43]. In sphingosine-1-phosphate experiments, culture media containing enzyme was substituted for media containing either 10 μM of S1P (Sigma-Aldrich) or a combination of 59 μg/ml of HS and 10 μM of S1P for 16 hours after enzyme degradation.
As specified by the manufacturer, the HS antibody reacts with many types of heparan sulfate. The reactivity of the HS antibody is abolished after treatment with Hep III, indicating antibody specificity. For secondary detection of HS, Alexa Flour 488 conjugated goat anti-mouse IgG/IgM (H+L; Life Technologies) secondary antibody was used. RFPECs to be processed for connexin 43 (Cx43) were fixed in 4% paraformaldehyde, permeabilized in 0.2% Triton X-100 (Fisher), and blocked in 5% goat serum combined with 0.2% Triton X-100. Connexin 43 staining was performed overnight at 4° C. with 1:100 mouse monoclonal Cx43 antibody (Millipore). […] Secondary Cx43 detection was done with Alexa Flour 488 conjugated goat anti-mouse IgG. […] These controls confirmed that the staining observed in the RFPECs is not an artefact.
Confocal immunofluorescence microscopy imaging and analysis. Alexa Fluor 488 fluorescent RFPECs were mounted with Vectashield containing DAPI (Vector Labs) and imaged with a Zeiss LSM 700 laser scanning confocal microscope. HS and Cx43 were imaged at 63× magnification (oil objective) and 40× magnification (oil objective), respectively. Lasers with excitation wavelengths of 490 nm (for HS or Cx43) and 350 nm (for DAPI) were used to obtain XY-plane slices. Laser gain and transmission were kept below fluorophore saturation levels. Confocal slice intervals were 0.2 μm for HS and 0.7 μm for Cx43. […]

For heparan sulfate [HS], the “Cx43 distribution along the perimeter of the cells” value (RFPEC, Hep III, then 16 h with or without 59 μg/ml HS and/or 10 μM S1P, mean±SEM) was 46% and 46.45±4.21%, the “Cx43 distribution/expression, result in words (FIG. 3 legend)” value (after Hep III, HS 59 μg/ml, S1P 10 μM) was “partially restored” and the “Cx43 recovery at cell borders, % of baseline conditions” value (treatment after enzymatic HS degradation) was “approximately 80%”.

Reference: US20200023001A1, “GlycoFix (Structurally And Functionally Repaired Endothelial Glycocalyx)” (Northeastern University, priority 2018, published 2020)
